Measurements as given in patent US20240285765A1, “PHTHALOCYANINE DYE COMPOUNDS, CONJUGATES AND METHODS OF USE THEREOF” (Rakuten Medical, Inc., priority 2021, published 2024).
Where two headings read alike, the source gives them in different places.

Tests used:
[1] = Kinetic (aqueous) solubility in pH 7.4 DPBS, UV quantification; details: kinetic; pH 7.4 DPBS, 4 hours, room temperature (25° C.)
BxPC3 cells = assay: Cell killing of free dye PIT, CellTox Green Cytotoxicity Assay; format: cell-based; details: BxPC3, 0-1 μg/mL free dye, 690 nm laser 64 J/cm2, 24 hours after light
Protocol: The PIT killing activity of free dyes were evaluated using the molecules synthesized as Example 12 and Example 13. BxPC3 cells (#CRL-1687, ATCC, Manassas VA) were plated, 5,000 cells per well, in RPMI-1640 media supplemented with 10% FBS and 1% Penicillin/Streptomycin (complete culture media) in a deep-well 96-well plate. Following overnight incubation at 37° C., the culture media were removed and the cells were incubated in 100 μL complete media with 1, 0.333, 0.111, 0.03704, 0.01235, 0.00412, 0.00137, or 0 μg/mL Example 12, Example 13, or IRDye 700DX carboxylate (control) for one hour at 4° C. […]
The effect of different treatment regimens on cell death was measured using the CellTox™ Green Cytotoxicity Assay (Cat No: G8742, Promega, Madison, WI). […] The CellTox™ Green fluorescence signal was measured at 24 hours after light treatment using a fluorescence plate reader. The cells were then lysed with diluted lysis solution (Cat No: G1821, Promega, Madison, WI), incubated at 37° C. for 30 minutes, and the CellTox™ Green fluorescence signal was measured again post-lysis. The percentages of dead cells were calculated by taking the ratio between background (1× CellTox™ Green in complete culture media without cells)-subtracted CellTox™ Green signal per well prior to and post lysis and multiplying the ratio by 100.

[2] = Singlet oxygen quantum yield, indirect method with chemical quencher (DPBF or ADMA); format: physicochemical; details: quencher ADMA, aqueous media, 670 nm LED 5 mW/cm^2, reference AlPcSmix
Source text: Photogeneration quantum yields of singlet oxygen (ΦΔ) were obtained by an indirect method, using either diphenylisobenzofuran (DBPF) or anthracene-9,10-bis-methylmalonate (ADMA) as chemical quenchers in either N,N-dimethylformamide or aqueous media, respectively. Typically, a solution of the phthalocyanine and the quencher was irradiated with a red LED lamp (670 nm) at 5 mW/cm^2. The initial DPBF or ADMA concentrations were kept the same for both the reference and the test samples. The degradation of the DPBF band at 414 nm or ADMA at 401 nm was monitored in a Varian Cary® 50 UV-Vis spectrophotometer, every five seconds in the case of DPBF (up to 30 seconds) and every minute in the case of ADMA (up to five minutes). ZnPc (ΦΔ=0.67) and AlPcSmix (ΦΔ=0.42) were used as references in N,N-dimethylformamide or aqueous media, respectively.
The relative method shown by Eq. (1) was employed for calculations of the ΦΔ:
[formula] • where ΦΔ and ΦΔref are the ^1O2 generation quantum yields for the sample and reference, respectively, m and mref are the DPBF or ADMA photobleaching rates in the presence of the phthalocyanine of the invention and the reference, respectively, and I and Iref are the rates of light absorption by the phthalocyanine derivative and reference, respectively. Concentrations of the test compound and reference were chosen such that their respective absorptions at the irradiation wavelength were the same.

[3] = UV-Vis absorption spectra; format: physicochemical
Protocol: The UV-Vis absorption spectra of the compounds in either an organic solvent or aqueous media was recorded in a Varian Cary® 50 UV-Vis spectrophotometer. Compounds of the invention show absorption in the 600-800 nm region of the spectra.

[4] = Thermodynamic solubility in pH 7.4 DPBS, UV quantification; format: physicochemical; details: Dulbecco's phosphate-buffered saline (DPBS), aqueous buffer, thermodynamic from solid, room temperature (25° C.)
Protocol: A working 1 mM stock solution of the test compound in DMSO was prepared from a 10 mM DMSO stock solution. A spectrum scan from 220 nm to 1000 nm of this working solution was performed in a 96-well UV plate to identify the wavelength maxima. […] The selected stock solution was serially diluted in DMSO to confirm linearity and generate a seven to eight-point calibration curve. Of note, only linear points were considered in the curve.
The resulting solution was placed on a RotoSpin™ shaker at 50 rpm for 24 hours at room temperature (25° C.). The solution was then filtered using a 0.45 μm PVDF filter to remove any insoluble fraction of the compound. A 150 μL aliquot of the filtrate was taken for quantification using UV spectroscopy (POLARstar Omega BMG Plate Reader). The optical densities of the standard solutions and the test sample were acquired at the same wavelength maxima. The test sample concentration was calculated from its optical density using the linearity/calibration curve.

[5] = cited from earlier work

Row | Compound | Solubility* (kinetic solubility) [1] | cell death (cytotoxicity) following illumination (BxPC3 cells) | ΦΔ (singlet oxygen quantum yield) [2] | solubility thermodynamic at 24 h [4] [µg/mL] | also measured
1 | 3-((6-((λ^5-azaneyl)oxy)-6-oxohexyl)(3-(((λ5-azaneyl)oxy)sulfonyl)propyl)(3-(((19-(((3-(bis(3-(((λ5-azaneyl)oxy)sulfonyl)propyl)(3-sulfonatopropyl)ammonio)propyl)dimethylsilyl)oxy)-19H-6,11-(azeno)-17,21-(azeno[3]episoindoloazeno)benzo[7,8][1,3,5,10]tetraaza[2]silacycloundecino[4,3-a:11,1-a′]diisoindol-19-yl)oxy)dimethylsilyl)propyl)ammonio)propane-1-sulfonate [Example 12] | C (C: >100 μg/mL) | dose-dependent cytotoxicity | B (B: >0.5) |  | 
2 | 4-((6-((λ5-azaneyl)oxy)-6-oxohexyl)(4-(((λ5-azaneyl)oxy)sulfonyl)butyl)(3-(((19-(((3-(bis(4-(((λ5-azaneyl)oxy)sulfonyl)butyl)(4-sulfonatobutyl)ammonio)propyl)dimethylsilyl)oxy)-19H-6,11-(azeno)-17,21-(azeno[3]episoindoloazeno)benzo[7,8][1,3,5,10]tetraaza[2]silacycloundecino[4,3-a:11,1-a′]diisoindol-19-yl)oxy)dimethylsilyl)propyl)ammonio)butane-1-sulfonate [Example 13] | C (C: >100 μg/mL) | dose-dependent cytotoxicity | B (B: >0.5) |  | maximum UV absorbance (UVmax) [3]: 677 nm; absorption at 690 nm relative to UVmax ([3]; wavelength 690 nm): approximately 50%
3 | C[Si](C)(CCCNC(=O)CCCCC(=O)O)O[Si-2]123(O[Si](C)(C)CCCNC(=O)C(CCC[N+](CCCS(=O)(=O)O)(CCCS(=O)(=O)O)CCCS(=O)(=O)O)CCC[N+](CCCS(=O)(=O)O)(CCCS(=O)(=O)O)CCCS(=O)(=O)O)n4c5c6ccccc6c4N=C4c6ccccc6C(=[N+]41)N=c1c4ccccc4c(n12)=NC1=[N+]3C(=N5)c2ccccc21.[Na+].[Na+].[Na+].[Na+].[Na+] [Example 20] |  |  |  | > 100 | 
4 | C[Si](C)(CCC[N+](CCCCS(=O)(=O)O)(CCCCS(=O)(=O)O)CCCCS(=O)(=O)O)O[Si-2]123(O[Si](C)(C)CCC[N+](CCCCS(=O)(=O)O)(CCCCS(=O)(=O)O)CCOCCOCCOCCOCCC(=O)O)n4c5c6ccccc6c4N=C4c6ccccc6C(=[N+]41)N=c1c4ccccc4c(n12)=NC1=[N+]3C(=N5)c2ccccc21.[Na+].[Na+].[Na+].[Na+] [Example 22, Sodium 2-((19-((dimethyl(3-(tris(4-sulfonatobutyl)ammonio)propyl)silyl)oxy)-19H-6,11-(azeno)-17,21-(azeno[3]episoindoloazeno)benzo[7,8][1,3,5,10]tetraaza[2]silacycloundecino[4,3-a:11,1-a′]diisoindol-19-yl)oxy)-2-methyl-6,6-bis(4-sulfonatobutyl)-9,12,15,18-tetraoxa-6-aza-2-silahenicosan-6-ium-21-oate] |  |  |  | > 100 | 
5 | [Zn+2].c1ccc2c(c1)-c1nc-2nc2[n-]c(nc3nc([n-]c4nc(n1)-c1ccccc1-4)-c1ccccc1-3)c1ccccc21 [ZnPc] |  |  |  |  | ΦΔ of reference ([5]; reference in N,N-dimethylformamide): 0.67
6 | AlPcSmix |  |  |  |  | ΦΔ of reference ([5]; reference in aqueous media): 0.42
